Assay: Partition coefficient (logP)
Assay type: physicochemical
Conditions: octanol/water

logP	Compound
5.9	CCCCc1nc2nc[nH]c2c2nc(-c3ccc(-c4ccccc4)cc3)nn12
4.38	CCCCc1nc2nc[nH]c2c2nc(-c3ccc(F)cc3)nn12
4.1	CCCCc1nc2[nH]cnc2c2nc(-c3ccc(OC)cc3)nn12
4.1	CCCCc1nc2[nH]cnc2c2nc(-c3cccc(OC)c3)nn12
2.57	CCCCc1nc2[nH]cnc2c2nc(C)nn12
4.66	CCCCc1nc2nc[nH]c2c2nc(-c3ccc(SC)cc3)nn12
4.33	CCCCc1nc2[nH]cnc2c2nc(Cc3ccccc3)nn12
4.51	CCCCc1nc2[nH]cnc2c2nc(-c3ccc(N(C)C)cc3)nn12
3.84	CCCCc1nc2nc[nH]c2c2nc(-c3ccc(O)cc3)nn12
2.82	Cc1nc2[nH]cnc2c2nc(-c3ccccc3)nn12
4.2	c1ccc(-c2nc3c4nc[nH]c4nc(-c4ccccc4)n3n2)cc1
4.92	CCCCc1nc2[nH]cnc2c2nc(-c3ccc(OCCC)cc3)nn12
4.71	CCCCc1nc2[nH]cnc2c2nc(-c3ccc(C)cc3)nn12
5.93	CCCCc1nc2[nH]cnc2c2nc(-c3ccc(C(C)(C)C)cc3)nn12
4.64	CCCCCc1nc2nc[nH]c2c2nc(-c3ccccc3)nn12
4.71	CCCCc1nc2[nH]cnc2c2nc(-c3cccc(C)c3)nn12
4.78	CCCCc1nc2nc[nH]c2c2nc(-c3ccccc3Cl)nn12
3.85	CCCCc1nc2[nH]cnc2c2nc(-c3cc(OC)c(OC)c(OC)c3)nn12
2.89	CCCCc1nc2[nH]cnc2c2nc(-c3cccnc3)nn12
5.06	CCCCCCc1nc2nc[nH]c2c2nc(-c3ccccc3)nn12
4.78	CCCCc1nc2nc[nH]c2c2nc(-c3ccc(Cl)cc3)nn12
2.84	CCCCc1nc2[nH]cnc2c2nc(-c3ccco3)nn12
4.44	CCCCc1nc2nc[nH]c2c2nc(-c3ccc(OCC)cc3)nn12
4.23	CCCCc1nc2[nH]cnc2c2nc(-c3ccccc3)nn12
5.15	CCCCc1nc2[nH]cnc2c2nc(-c3ccc(C(F)(F)F)cc3)nn12
3.81	CCCc1nc2nc[nH]c2c2nc(-c3ccccc3)nn12
5.05	CCCCc1nc2nc[nH]c2c2nc(-c3ccc(Br)cc3)nn12
4.78	CCCCc1nc2nc[nH]c2c2nc(-c3cccc(Cl)c3)nn12
3.39	CCc1nc2[nH]cnc2c2nc(-c3ccccc3)nn12
